pKi: −log10 of the molar value.
The compounds below were run against T1, human melanin concentrating hormone receptor (MCHR1) (Homo sapiens, UniProt Q99705, A5T/E4Q) (assay: Radioligand binding assay for assessment of MCHR1 activity). Conditions: membranes from HEK-293 cells expressing mutated (E4Q, AST) hMCHR1; competition with 0.06-0.1 nM [Phe13,[125I]Tyr19]-MCH, 90 min.
T1 construct: expressed in transfected cells; host or cells: HEK-293 (stably transfected), membranes
Experimental: Compounds of Formula I were initially characterized in an in vitro binding assay to determine their Ki or ability to antagonize binding of a peptide agonist to the human melanin concentrating hormone receptor (MCHR1).
Membranes from stably transfected HEK-293 cells expressing a mutated (E4Q, AST) hMCHR1 receptor were prepared by dounce homogenization and differential centrifugation. Binding experiments were carried out with 0.5-1.0 ug of membrane protein incubated in a total of 0.2 ml in 25 mM HEPES (pH 7.4) with 10 mM MgCl2, 2 mM EGTA, and 0.1% BSA (Binding Buffer) for 90 min. For competition binding assays, reactions were carried out in the presence of with 0.06-0.1 nM [Phe^13, [^125I]Tyr^19]-MCH and increasing concentrations of unlabeled test molecules. Reactions were terminated by rapid vacuum filtration over 96 well-GFC Unifilter plates pre-coated with 0.075 ml binding buffer containing 1% BSA, and washed 3 times with 0.4 ml of Phospho-buffered Saline (pH 7.4) containing 0.01% TX-100. Filters were dried; 0.05 ml microscint 20 was added to each well and radioactivity was subsequently quantified by scintillation counting on a TOPCOUNT® microplate scintillation counter (Packard). Inhibitory constants were determined by nonlinear least squares analysis using a four parameter logistic equation.

T1 sequence (Q99705 whole entry E4Q/A5T): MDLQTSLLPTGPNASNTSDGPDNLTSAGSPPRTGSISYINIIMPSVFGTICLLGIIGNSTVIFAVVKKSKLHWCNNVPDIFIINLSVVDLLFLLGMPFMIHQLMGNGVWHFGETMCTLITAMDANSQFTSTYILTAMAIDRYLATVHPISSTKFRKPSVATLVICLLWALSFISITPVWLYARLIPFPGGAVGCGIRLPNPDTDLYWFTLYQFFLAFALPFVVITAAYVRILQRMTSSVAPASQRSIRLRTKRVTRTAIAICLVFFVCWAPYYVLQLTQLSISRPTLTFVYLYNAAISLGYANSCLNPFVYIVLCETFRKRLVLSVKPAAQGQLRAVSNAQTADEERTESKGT

Row | SMILES | pKi
1 | COc1cc(-n2ccc(SCc3ccc(Cl)cc3)nc2=O)ccc1OCC(C)(C)O [Example A1, 4-(4-Chlorobenzylthio)-1-(4-(2-hydroxy-2-methylpropoxy)-3-methoxyphenyl)pyrimidin-2(1H)-one] | 7.39
2 | COc1cc(-n2ccc(OCc3ccc(Cl)c(Cl)c3)nc2=O)ccc1OCC(C)(C)O [Example A13] | 5.94
3 | Cc1cc(-n2ccc(NCc3ccc(Cl)cc3)nc2=O)ccc1OCC(C)(C)O [Example A17] | 6.34
4 | COc1cc(-n2ccc(C#Cc3ccccc3)nc2=O)ccc1OCC(C)(C)O [Example B1, 1-(4-(2-Hydroxy-2-methylpropoxy)-3-methoxyphenyl)-4-(phenylethynyl)pyrimidin-2(1H)-one] | 7.41
5 | COc1cc(-n2ccc(COc3ccccc3F)nc2=O)ccc1OCC(C)(C)O [Example C5] | 5.66
6 | COc1cc(-n2ncc(C#Cc3ccccc3)cc2=O)ccc1OCC(O)C1CC1 (stereo not drawn) [Example D2] | 7.43
7 | COc1cc(-n2ncc(CSc3ccc(Cl)cc3)cc2=O)ccc1OCC(C)(C)O [Example E1, 5-((4-Chlorophenylthio)methyl)-2-(4-(2-hydroxy-2-methylpropoxy)-3-methoxyphenyl)pyridazin-3(2H)-one] | 5.97
8 | COc1cc(-n2cnc(CSc3ccc(F)cc3)cc2=O)ccc1OCC(C)(C)O [Example G3] | 6.42
9 | COc1cc(-n2cnc(OCc3ccc(Cl)cc3)cc2=O)ccc1OCC(C)(C)O [Example H1, 6-(4-Chlorobenzyloxy)-3-(4-(2-hydroxy-2-methylpropoxy)-3-methoxyphenyl)pyrimidin-4(3H)-one] | 7.46
10 | COc1cc(-n2cnc(SCc3ccc(Cl)cc3)cc2=O)ccc1OCC(C)(C)O [Example H2] | 8.15
11 | COc1cc(-n2cnc(SCc3ccc(Cl)cc3)cc2=O)ccc1OCC(O)C1CC1 (stereo not drawn) [Example H6] | 7.96
12 | COc1cc(-n2cnc(/C=C/c3ccc(Cl)cc3)cc2=O)ccc1OCC(C)(C)O [Example J1, (E)-6-(4-Chlorostyryl)-3-(4-(2-hydroxy-2-methylpropoxy)-3-methoxyphenyl)pyrimidin-4(3H)-one] | 7.64

— patent publication US8278316B2, “Aza pyridone analogs useful as melanin concentrating hormone receptor-1 antagonists” (Bristol-Myers Squibb Company, priority 2009, dated 2012)
